# Measured values as given in ChEMBL document CHEMBL1201862, “PubChem BioAssay data set” (2004).
# Calls of active or inactive are those of the source.
# Assays:
# [1] = biological target: T1, Mannose-6-phosphate isomerase (Homo sapiens, UniProt P34949); experiment: MPI inhibition at elevated mannose 6-phosphate – biochemical, fluorescence intensity, high mannose 6-phosphate, primary screen (AID 1220)
# T1 sequence (P34949 whole entry): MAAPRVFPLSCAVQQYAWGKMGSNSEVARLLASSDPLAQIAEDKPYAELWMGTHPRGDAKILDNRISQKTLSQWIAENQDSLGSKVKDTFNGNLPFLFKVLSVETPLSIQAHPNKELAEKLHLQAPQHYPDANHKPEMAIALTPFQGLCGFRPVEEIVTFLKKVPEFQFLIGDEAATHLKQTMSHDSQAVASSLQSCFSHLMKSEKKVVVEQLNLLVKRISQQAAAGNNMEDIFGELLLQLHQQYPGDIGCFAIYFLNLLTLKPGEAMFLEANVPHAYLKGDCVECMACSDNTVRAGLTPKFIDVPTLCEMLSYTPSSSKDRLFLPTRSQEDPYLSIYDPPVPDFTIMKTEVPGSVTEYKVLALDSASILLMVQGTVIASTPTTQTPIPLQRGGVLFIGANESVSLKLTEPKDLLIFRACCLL
# [2] = biological target: Fructose-bisphosphate aldolase (Mycobacterium tuberculosis, UniProt P9WQA3); experiment: Fluorescence-based biochemical high throughput dose response assay for inhibitors of the fructose-bisphosphate aldolase (FBA) of M. tuberculosis.; type: functional
# Vero [3] = experiment: viability of Vero cells under compound – cytotoxicity control for flavivirus capping enzyme inhibitors (AID 588742); type: functional; conditions: Chlorocebus sabaeus
# Protein RecA = biological target: T2, Protein RecA (Mycobacterium tuberculosis, UniProt P9WHJ3); experiment: Fluorescence Cell-Free Homogeneous Dose Retest to Identify Inhibitors of RecA-Intein Splicing Activity. [Related pubchem assays (depositor defined):AID2097, AID2223, AID489010, AID492950]; type: functional
# T2 sequence (P9WHJ3 whole entry): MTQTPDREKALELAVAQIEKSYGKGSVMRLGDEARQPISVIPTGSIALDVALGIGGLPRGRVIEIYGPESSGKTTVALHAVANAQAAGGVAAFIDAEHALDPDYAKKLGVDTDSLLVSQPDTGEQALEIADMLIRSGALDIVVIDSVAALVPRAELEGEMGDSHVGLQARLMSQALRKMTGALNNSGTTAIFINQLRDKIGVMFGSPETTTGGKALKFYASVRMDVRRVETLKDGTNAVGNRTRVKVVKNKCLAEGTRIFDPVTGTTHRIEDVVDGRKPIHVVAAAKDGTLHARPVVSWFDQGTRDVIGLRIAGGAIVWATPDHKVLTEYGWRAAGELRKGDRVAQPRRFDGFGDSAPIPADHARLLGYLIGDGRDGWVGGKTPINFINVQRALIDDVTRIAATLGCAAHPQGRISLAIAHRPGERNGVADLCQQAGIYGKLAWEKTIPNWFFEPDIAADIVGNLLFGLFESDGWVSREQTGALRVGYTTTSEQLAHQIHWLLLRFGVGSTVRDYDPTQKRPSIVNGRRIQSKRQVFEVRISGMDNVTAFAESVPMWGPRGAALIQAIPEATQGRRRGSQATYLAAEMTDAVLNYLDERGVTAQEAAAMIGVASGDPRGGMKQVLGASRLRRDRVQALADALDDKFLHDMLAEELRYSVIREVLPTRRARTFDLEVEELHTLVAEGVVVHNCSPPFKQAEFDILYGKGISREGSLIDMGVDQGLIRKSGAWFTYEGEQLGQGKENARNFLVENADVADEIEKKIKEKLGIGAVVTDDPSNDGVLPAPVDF
# [4] = biological target: T3, Replicative DNA helicase DnaB (Mycobacterium tuberculosis, UniProt P9WMR3); experiment: DnaB intein splicing inhibitors, dose response, biochemical, cell-free fluorescence (AID 449749); type: functional
# T3 sequence (P9WMR3 whole entry): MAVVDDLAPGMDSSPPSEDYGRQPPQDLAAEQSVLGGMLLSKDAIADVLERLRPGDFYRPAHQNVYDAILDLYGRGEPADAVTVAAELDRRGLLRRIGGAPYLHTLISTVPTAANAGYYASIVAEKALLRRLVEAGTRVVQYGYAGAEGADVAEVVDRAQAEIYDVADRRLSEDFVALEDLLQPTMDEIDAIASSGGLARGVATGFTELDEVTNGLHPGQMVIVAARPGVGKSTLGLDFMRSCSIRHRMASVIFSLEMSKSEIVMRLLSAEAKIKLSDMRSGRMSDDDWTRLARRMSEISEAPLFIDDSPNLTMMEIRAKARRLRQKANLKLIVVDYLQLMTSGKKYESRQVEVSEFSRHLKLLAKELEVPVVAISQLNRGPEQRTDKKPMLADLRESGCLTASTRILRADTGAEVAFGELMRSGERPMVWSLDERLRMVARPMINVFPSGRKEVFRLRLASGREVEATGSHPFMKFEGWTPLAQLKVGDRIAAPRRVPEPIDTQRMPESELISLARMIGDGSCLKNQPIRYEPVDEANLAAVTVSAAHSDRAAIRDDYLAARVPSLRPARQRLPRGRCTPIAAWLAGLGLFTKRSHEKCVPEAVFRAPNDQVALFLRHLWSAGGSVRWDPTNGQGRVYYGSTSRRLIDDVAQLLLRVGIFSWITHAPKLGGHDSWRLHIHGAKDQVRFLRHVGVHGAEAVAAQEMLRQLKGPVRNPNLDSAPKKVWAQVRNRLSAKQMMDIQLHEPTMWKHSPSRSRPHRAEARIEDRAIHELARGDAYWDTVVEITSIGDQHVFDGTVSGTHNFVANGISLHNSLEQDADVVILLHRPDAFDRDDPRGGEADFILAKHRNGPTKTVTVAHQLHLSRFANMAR
# Beta-galactosidase = Beta-galactosidase (Escherichia coli, UniProt Q8VNN2); experiment: Dose response counterscreen for EBI2 assay utilizing the enzyme, b-galactosidase.; type: functional
# [5] = biological target: T4, Nuclear receptor subfamily 0 group B member 1 (Homo sapiens, UniProt P51843); type: functional, cell-based;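 note: HEK293T cells transfected with SF-1 and DAX-1 plus StAR promoter luciferase reporter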
# T4 sequence (P51843 whole entry): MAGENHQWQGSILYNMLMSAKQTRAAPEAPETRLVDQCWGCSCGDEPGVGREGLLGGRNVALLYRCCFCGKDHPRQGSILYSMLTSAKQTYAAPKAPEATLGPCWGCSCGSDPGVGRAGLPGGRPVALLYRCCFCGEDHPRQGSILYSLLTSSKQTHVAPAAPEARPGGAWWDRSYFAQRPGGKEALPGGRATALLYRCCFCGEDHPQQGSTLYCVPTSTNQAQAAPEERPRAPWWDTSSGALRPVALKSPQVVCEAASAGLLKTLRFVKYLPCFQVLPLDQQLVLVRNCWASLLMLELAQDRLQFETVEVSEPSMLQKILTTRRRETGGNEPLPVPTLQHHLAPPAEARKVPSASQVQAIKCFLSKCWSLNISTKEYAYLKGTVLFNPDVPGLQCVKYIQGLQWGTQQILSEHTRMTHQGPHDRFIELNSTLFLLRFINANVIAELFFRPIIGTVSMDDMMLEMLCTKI
# cells = type: functional, cell-based
# [6] = blockade of melanocortin 4 receptor signaling – cell-based, plate reader, cherry pick, counter-screen for LGR2 antagonist project, dose response (AID 743444); type: functional;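 note: transfected HEK 293 cells stimulated with alpha-MSH peptide; potency of inhibitors of the alpha-MSH evoked signal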
# [7] = A549 cell cytotoxicity, dose response, cytotoxicity control, plate reader, cherry-pick, antagonist series (AID 743412); type: functional, cell-based
# [8] = blockers of bursicon-stimulated LGR2 cAMP reporter – cell-based, HEK293, CRE-luciferase reporter, cherry pick, set 2, dose response (AID 743343); type: functional;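 note: transfected cells were stimulated with diluted bursicon conditioned medium after compound addition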
# [9] = inhibition of ARNT PAS-B/TACC3 complex formation – biochemical, AlphaScreen, cherry-picked samples, confirmation (AID 651703); type: functional, Homo sapiens;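 note: His-tagged ARNT PAS-B domain paired with GST-TACC3 E629A dimer coactivator fragment; potency of inhibitors that break up the complex and lower AlphaScreen signal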
# Vero [10] = experiment: viability loss in Vero cells – cell-based, plate reader, cherry-pick samples, cytotoxicity control, dose response (AID 687020); type: functional; conditions: Chlorocebus sabaeus
# [11] = biological target: T5, Probable nicotinate-nucleotide adenylyltransferase (Staphylococcus aureus (strain N315), UniProt P65502); type: functional, Staphylococcus aureus subsp. aureus N315;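 for IC50 Mean: confirmatory dose-response retesting of NadD inhibitor hits first found in an ultra-high-throughput screen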
# [12] = biological target: T5, Probable nicotinate-nucleotide adenylyltransferase; type: functional, Staphylococcus aureus subsp. aureus N315; conditions: read-out: IC50_Mean
# [13] = Fluorescence-based cell-based high throughput dose response assay for inhibitors of the interaction of nucleotide-binding oligomerization domain containing 2 (NOD2) and the receptor-interacting serine-threonine kinase 2 (RIPK2).; type: functional, Homo sapiens
# [14] = biological target: Dual specificity protein phosphatase 3 (Homo sapiens, UniProt P51452); experiment: VHR phosphatase inhibition, dose response, selectivity assay for STEP inhibitor project, biochemical (AID 602374); type: functional; conditions: read-out: IC50_Mean
# [15] = biological target: Tyrosine-protein phosphatase non-receptor type 11 (Homo sapiens, UniProt Q06124); experiment: PTPN11 enzyme inhibitors – biochemical, selectivity assay for STEP inhibitor project, dose response (AID 602367); type: functional; conditions: read-out: IC50_Mean
# [16] = biological target: Tyrosine-protein phosphatase non-receptor type 5 (Homo sapiens, UniProt P54829); experiment: PTPN5 enzyme inhibition – biochemical, fluorescence intensity, uHTS hits, confirmation (AID 602372); type: functional; conditions: read-out: IC50_Mean
# [17] = biological target: T6, Low molecular weight phosphotyrosine protein phosphatase (Homo sapiens, UniProt P24666); type: functional; conditions: read-out: IC50_Mean
# T6 sequence (P24666 whole entry): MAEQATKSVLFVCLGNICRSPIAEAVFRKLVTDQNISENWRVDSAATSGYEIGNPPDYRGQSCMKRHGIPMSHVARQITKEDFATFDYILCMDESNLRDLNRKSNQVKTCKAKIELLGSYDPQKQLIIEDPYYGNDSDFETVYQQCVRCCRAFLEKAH
# [18] = biological target: T6, Low molecular weight phosphotyrosine protein phosphatase; type: functional; conditions: read-out: IC50_Mean; remark: listed apart in the source
# [19] = viability loss in HeLa cells – cytotoxicity control for MgcRacGAP inhibitor project, dose response (AID 624300); type: functional
# [20] = biological target: T7, Rac GTPase-activating protein 1 (Homo sapiens, UniProt Q9H0H5); experiment: blockers of MgcRacGAP-driven Rac1 GTP hydrolysis – biochemical, ADP Hunter fluorescence, primary and confirmatory, confirmation (AID 624330); type: functional
# T7 sequence (Q9H0H5 whole entry): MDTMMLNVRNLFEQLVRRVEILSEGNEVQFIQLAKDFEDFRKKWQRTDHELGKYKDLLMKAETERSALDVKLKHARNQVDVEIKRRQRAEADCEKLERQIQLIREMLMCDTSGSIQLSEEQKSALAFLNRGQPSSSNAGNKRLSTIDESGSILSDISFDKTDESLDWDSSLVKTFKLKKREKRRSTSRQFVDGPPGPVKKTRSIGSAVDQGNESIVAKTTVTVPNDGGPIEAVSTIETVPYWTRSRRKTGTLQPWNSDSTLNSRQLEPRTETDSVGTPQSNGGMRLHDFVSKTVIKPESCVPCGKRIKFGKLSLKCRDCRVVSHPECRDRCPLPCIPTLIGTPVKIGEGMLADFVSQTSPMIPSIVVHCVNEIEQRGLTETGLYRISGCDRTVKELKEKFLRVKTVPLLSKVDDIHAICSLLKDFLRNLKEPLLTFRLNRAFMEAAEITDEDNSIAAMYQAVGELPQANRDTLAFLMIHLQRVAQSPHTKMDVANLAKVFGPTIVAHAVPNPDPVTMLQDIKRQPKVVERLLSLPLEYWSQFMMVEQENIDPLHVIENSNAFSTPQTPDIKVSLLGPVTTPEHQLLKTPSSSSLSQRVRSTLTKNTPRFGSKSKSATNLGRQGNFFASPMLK
# T5 sequence (P65502 whole entry): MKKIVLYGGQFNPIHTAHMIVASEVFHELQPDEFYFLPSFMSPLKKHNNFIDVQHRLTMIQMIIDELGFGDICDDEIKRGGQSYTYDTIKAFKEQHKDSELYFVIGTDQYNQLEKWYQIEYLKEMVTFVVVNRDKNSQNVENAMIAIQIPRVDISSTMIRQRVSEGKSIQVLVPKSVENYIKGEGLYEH
# Beta-galactosidase, sequence (Q8VNN2 whole entry): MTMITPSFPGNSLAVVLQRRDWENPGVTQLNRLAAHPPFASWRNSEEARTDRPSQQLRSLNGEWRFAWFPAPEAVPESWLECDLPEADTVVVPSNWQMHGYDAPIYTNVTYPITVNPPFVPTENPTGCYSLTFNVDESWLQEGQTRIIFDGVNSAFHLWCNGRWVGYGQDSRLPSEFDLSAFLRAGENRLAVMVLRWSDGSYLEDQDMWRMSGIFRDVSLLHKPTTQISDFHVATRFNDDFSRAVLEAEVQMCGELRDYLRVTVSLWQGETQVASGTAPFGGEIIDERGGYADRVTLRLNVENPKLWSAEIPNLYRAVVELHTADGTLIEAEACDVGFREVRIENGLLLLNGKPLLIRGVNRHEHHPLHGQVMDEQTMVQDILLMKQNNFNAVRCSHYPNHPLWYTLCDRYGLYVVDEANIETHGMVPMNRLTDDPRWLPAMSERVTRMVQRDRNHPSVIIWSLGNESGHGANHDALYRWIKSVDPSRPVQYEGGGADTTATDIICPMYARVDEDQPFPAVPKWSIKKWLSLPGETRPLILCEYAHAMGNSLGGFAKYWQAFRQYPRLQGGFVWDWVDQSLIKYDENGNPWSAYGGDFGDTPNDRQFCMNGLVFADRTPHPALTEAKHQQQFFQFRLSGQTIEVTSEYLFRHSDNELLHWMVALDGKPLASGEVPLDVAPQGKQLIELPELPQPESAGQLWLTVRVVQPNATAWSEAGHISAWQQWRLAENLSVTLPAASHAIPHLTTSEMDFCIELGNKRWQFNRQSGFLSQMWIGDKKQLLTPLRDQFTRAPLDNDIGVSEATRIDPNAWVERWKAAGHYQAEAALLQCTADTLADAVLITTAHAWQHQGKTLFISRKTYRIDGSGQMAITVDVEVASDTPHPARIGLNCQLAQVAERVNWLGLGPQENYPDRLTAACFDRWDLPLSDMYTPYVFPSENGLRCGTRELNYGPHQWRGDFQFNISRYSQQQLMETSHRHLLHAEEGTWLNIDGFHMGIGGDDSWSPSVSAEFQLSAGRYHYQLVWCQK
# Fructose-bisphosphate aldolase, sequence (P9WQA3 whole entry): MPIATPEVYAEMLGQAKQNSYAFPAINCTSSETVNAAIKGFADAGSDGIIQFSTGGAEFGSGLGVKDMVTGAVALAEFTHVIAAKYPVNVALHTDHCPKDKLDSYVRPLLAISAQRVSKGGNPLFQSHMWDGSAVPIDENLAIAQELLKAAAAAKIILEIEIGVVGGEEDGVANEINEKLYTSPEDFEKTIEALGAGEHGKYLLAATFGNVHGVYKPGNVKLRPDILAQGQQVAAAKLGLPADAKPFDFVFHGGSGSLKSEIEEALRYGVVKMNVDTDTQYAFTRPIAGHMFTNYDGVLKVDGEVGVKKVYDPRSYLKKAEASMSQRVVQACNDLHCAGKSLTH
# Tyrosine-protein phosphatase non-receptor type 5, sequence (P54829 whole entry): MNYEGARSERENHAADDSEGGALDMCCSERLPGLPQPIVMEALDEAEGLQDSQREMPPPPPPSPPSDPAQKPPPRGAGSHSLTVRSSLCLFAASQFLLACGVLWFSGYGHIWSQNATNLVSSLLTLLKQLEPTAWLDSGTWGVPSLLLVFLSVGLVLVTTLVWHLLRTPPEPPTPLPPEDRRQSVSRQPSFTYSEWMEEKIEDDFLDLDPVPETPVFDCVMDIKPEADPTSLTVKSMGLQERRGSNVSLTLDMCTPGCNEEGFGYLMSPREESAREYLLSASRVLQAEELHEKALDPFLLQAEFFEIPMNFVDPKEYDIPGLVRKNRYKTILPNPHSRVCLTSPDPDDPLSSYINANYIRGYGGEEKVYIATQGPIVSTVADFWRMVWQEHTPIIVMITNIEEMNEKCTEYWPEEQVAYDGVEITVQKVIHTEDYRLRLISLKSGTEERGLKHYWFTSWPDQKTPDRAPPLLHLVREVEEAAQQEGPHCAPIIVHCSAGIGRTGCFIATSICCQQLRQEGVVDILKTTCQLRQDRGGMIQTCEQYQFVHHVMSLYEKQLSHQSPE
# Dual specificity protein phosphatase 3, sequence (P51452 whole entry): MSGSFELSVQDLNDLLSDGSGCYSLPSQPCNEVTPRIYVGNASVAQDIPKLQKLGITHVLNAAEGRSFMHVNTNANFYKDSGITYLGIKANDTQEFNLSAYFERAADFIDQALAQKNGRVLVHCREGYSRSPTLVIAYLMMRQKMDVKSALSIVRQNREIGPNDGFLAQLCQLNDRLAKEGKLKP
# Tyrosine-protein phosphatase non-receptor type 11, sequence (Q06124 whole entry): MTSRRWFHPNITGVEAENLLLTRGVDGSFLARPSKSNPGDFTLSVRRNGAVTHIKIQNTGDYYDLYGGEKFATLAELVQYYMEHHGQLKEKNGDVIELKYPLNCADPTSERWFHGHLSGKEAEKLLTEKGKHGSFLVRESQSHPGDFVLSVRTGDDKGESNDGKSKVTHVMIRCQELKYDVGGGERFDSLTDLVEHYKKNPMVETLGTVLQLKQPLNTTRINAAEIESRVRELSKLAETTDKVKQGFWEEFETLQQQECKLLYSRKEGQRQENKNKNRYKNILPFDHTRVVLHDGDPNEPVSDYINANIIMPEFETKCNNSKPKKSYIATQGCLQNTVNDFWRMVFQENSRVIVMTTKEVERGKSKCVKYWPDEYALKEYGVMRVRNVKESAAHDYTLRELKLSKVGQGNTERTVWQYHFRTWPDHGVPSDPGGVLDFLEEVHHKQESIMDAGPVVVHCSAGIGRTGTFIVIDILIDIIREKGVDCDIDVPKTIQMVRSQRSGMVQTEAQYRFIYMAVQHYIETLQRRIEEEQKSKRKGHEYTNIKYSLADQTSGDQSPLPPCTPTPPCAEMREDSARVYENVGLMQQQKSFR
smiles,measurement,setting,value
CCOC(=O)c1c(NC(=O)c2ccco2)n(C2CCCCC2)c2nc3ccccc3nc12,IC50,[1],> 50 µM (not active)
same,IC50,[2],1.67 µM (active)
same,CC50,Vero [3],> 40 µM (active)
same,EC50,Protein RecA,2.62 µM (active)
same,AC50,[4],229 µM (active)
COc1cc2c(cc1OC)C(C1C(=O)CC(C)CC1=O)N(C(=O)CCl)CC2 (centres undefined),IC50,[2],> 9.99 µM (inactive)
CCCCNc1c(-c2ccc(-c3ccc(C(C)=O)cc3)c(OC)c2)nc2cc(C)ccn12,IC50,Beta-galactosidase,77.5 µM (inactive)
COc1cc(C2c3cc4c(cc3C(O)C3COC(=O)C23)OCO4)cc(OC)c1OC (centres undefined),IC50,[5],> 67.5 µM (inactive)
same,IC50,cells,> 67.5 µM (inactive)
COc1ccc(-c2cn3cc(C)ccc3n2)cc1F,IC50,[5],> 67.6 µM (inactive)
same,AC50,[6],2.87 µM (active)
same,AC50,[7],30.9 µM (active)
same,AC50,[8],3 µM (active)
same,IC50,cells,> 67.6 µM (inactive)
O=C(CCN1C(=O)c2cccnc2C1=O)NC1CCCCCC1,AC50,[9],76.9 µM (active)
COc1c(Cl)cc(Br)c(OC)c1C(=O)NC(=O)Nc1nc(C)cc(C)n1,AC50,Vero [10],29.2 µM (active)
Cc1ccc(Cn2c(C3CCCN3c3nc(-c4cc(Cl)c(N)c(Cl)c4)cs3)nc3cc(Cl)c(Cl)cc32)cc1 (centres undefined),IC50,[11],11.1 µM (active)
same,IC50,[12],26.4 µM (active)
CCOC(=O)N1CCN(C(=O)c2cc3c(s2)-c2ccccc2OC3)CC1,IC50,Beta-galactosidase,> 80 µM (inactive)
CC(=O)O[C@H]1C[C@@H]2OC3C=C(C)CCC3(C)[C@@]1(C)[C@@]21CO1 (some centres undefined),IC50,[13],49.8 µM (inactive)
O=C(COc1ccc(/C=N/NC(=O)c2ccncc2)cc1)Nc1ccc([N+](=O)[O-])cc1,IC50,[14],21.7 µM (inactive)
same,IC50,[15],6.08 µM (active)
same,IC50,[16],> 80 µM (inactive)
O=C(CSc1nc(-c2ccccc2)nc2ccc(F)cc12)Nc1ccc(C(=O)O)cc1,IC50,[17],57.3 µM (inactive)
same,IC50,[18],25.9 µM (inactive)
CN(CC(=O)Nc1cccc(F)c1)C(=O)c1ccccc1CCc1ccccc1,AC50,Vero [10],15.3 µM (active)
O=C(CSc1cccc2cccnc12)N/N=C/c1ccncc1,AC50,[9],110 µM (active)
CC(=O)Nc1cccc(NC(=O)c2cccc(-c3ccc(O)cc3)c2)c1,CC50,[19],100 µM (active)
same,IC50,[20],46.4 µM (active)
